Results published in US20080096967A1, “Formulations for Injection of Catecholic Butanes, Including Ndga Compounds, Into Animals” (priority 2005, published 2008).

System: HeLa, an HPV-18 positive human cervical cancer cell line
Assay: Cell proliferation and cell death, trypan blue exclusion, HeLa cells
Assay type: cell-based
Procedure: M4N in 10% (w/v) HP-β-CD and 25% (v/v) PEG 300 (hereafter, the “CPE formulation”), M4N in 30% (w/v) HP-β-CD and 25% (v/v) PEG 300 (hereafter, the “CPE 25/30 formulation”) and M4N in 27% (w/v) HP-β-CD and 33% (v/v) PEG 300 (hereafter, the “CPE 33/27 formulation”) was tested for their effects on cell death and proliferation on two different tumor cell lines: HeLa, an HPV-18 positive human cervical cancer cell line, and C-33A, an HPV-negative human cervical cancer cell line M4N in DMSO was also tested in parallel. Both tumor cell lines were treated with increasing amounts of M4N: 0 μM, 20 μM, 40 μM, 60 μM and 80 μM, for 72 hr with the DMSO or the CPE formulation. Each formulation was added to total 1% of the growth media (Minimal Essential Medium with L-glutamine supplemented with 10% fetal bovine serum, 1 mM sodium pyruvate, 1× non-essential amino acid solution, and 1,000 IU/mL penicillin/1,000 μg/mL streptomycin solution). Control cells were grown under the same conditions and were left untreated. After 72 hr of treatment or no treatment, the total number of cells and the number of live cells in each sample were counted, using the trypan blue exclusion method. The cell proliferation rate and the percentage of dead cells in each sample were analyzed. Results of this experiment are shown in FIG. 1, FIG. 2, and Tables 6 through 12.
FIG. 1 is a graphical representation of the ratio of the number of treated cells/number of untreated cells plotted against increasing concentrations of M4N in either the DMSO formulation or the CPE formulation for treatment of the C-33A cells and HeLa cells. FIG. 2 is a graphical representation of the percentage of dead cells plotted against increasing concentrations of M4N and in either DMSO formulation or the CPE formulation for treatment of the two cancer cell lines, C-33A and HeLa cells in culture.
Various lots of M4N were tested to show the effectiveness of the drug of different lots. HeLa cells were treated with increasing amounts of M4N: 0 μM, 20 μM, 40 μM, 60 μM and 80 μM, for 72 hr with the CPE formulation. Each formulation was added to total 1% of the growth media (Minimal Essential Medium with L-glutamine supplemented with 10% fetal bovine serum, 1 mM sodium pyruvate, 1× non-essential amino acid solution, and 1,000 IU/mL penicillin/1,000 μg/mL streptomycin solution). Control cells were grown under the same conditions and were left untreated. After 72 hr of treatment or no treatment, the total number of cells and the number of live cells in each sample were counted, using the trypan blue exclusion method. The cell proliferation rate and the percentage of dead cells in each sample were analyzed.

[1] = M4N 60 μM in CPE formulation, 72 hr, at 9 months
[2] = M4N 60 μM in CPE formulation, 72 hr, at 12 months
[3] = M4N 60 μM in CPE formulation, 72 hr, comparison with CPE 25/30
[4] = M4N 60 μM in CPE formulation, 72 hr, time 0
[5] = M4N 60 μM in CPE formulation, 72 hr, time zero, comparison with CPE 33/27
[6] = M4N 60 μM in DMSO, 72 hr, at 9 months
[7] = M4N 60 μM in DMSO, 72 hr, at 12 months
[8] = M4N 60 μM in DMSO, 72 hr, time 0
[9] = M4N 80 μM in CPE 25/30 formulation, 72 hr
[10] = M4N 80 μM in CPE 25/30 formulation, 72 hr, at 3 months
[11] = M4N 80 μM in CPE 33/27 formulation, 72 hr, time zero
[12] = M4N 80 μM in CPE formulation, 72 hr, at 3 months
[13] = M4N 80 μM in CPE formulation, 72 hr, at 9 months
[14] = M4N 80 μM in CPE formulation, 72 hr, at 12 months
[15] = M4N 80 μM in CPE formulation, 72 hr, comparison with CPE 25/30
[16] = M4N 80 μM in CPE formulation, 72 hr, time 0
[17] = M4N 80 μM in CPE formulation, 72 hr, time zero, comparison with CPE 33/27
[18] = M4N 80 μM in DMSO, 72 hr, at 9 months
[19] = M4N 80 μM in DMSO, 72 hr, at 12 months
[20] = M4N 80 μM in DMSO, 72 hr, time 0
[21] = M4N lot EM1001, 20 μM in CPE formulation, 72 hr
[22] = M4N lot EM1001, 40 μM in CPE formulation, 72 hr
[23] = M4N lot EM1001, 60 μM in CPE formulation, 72 hr
[24] = M4N lot EM1001, 80 μM in CPE formulation, 72 hr
[25] = M4N lot EM1002, 20 μM in CPE formulation, 72 hr
[26] = M4N lot EM1002, 40 μM in CPE formulation, 72 hr
[27] = M4N lot EM1002, 60 μM in CPE formulation, 72 hr
[28] = M4N lot EM1002, 80 μM in CPE formulation, 72 hr

COc1ccc(C[C@@H](C)[C@@H](C)Cc2ccc(OC)c(OC)c2)cc1OC [Formulation M4N, meso-1,4-bis(3,4-dimethoxyphenyl)-2,3-dimethylbutane]
Proliferation Rate (M4N 60 μM in CPE formulation, 72 hr, at 3 months): 0.03 | % Dead Cells [1]: 13.6% | % Viability [1]: 86.4% | Proliferation Rate [1]: 0.09 | % Dead Cells [2]: 25.0% | % Viability [2]: 75.0% | Proliferation Rate [2]: 0.05 | % Dead Cells [3]: 55.6% | % Viability [3]: 44.5% | Proliferation Rate [3]: 0.03 | % Dead Cells [4]: 19.6% | % Viability [4]: 80.4% | Proliferation Rate [4]: 0.13 | % Dead Cells [5]: 26.2% | % Viability [5]: 73.9% | Proliferation Rate [5]: 0.10 | % Dead Cells [6]: 32.5% | % Viability [6]: 67.5% | Proliferation Rate [6]: 0.03 | % Dead Cells [7]: 35.4% | % Viability [7]: 64.6% | Proliferation Rate [7]: 0.04 | % Dead Cells [8]: 36.1% | % Viability [8]: 63.9% | Proliferation Rate [8]: 0.13 | % Dead Cells [9]: 45.2% | % Viability [9]: 54.8% | Proliferation Rate [9]: 0.07 | % Dead Cells [10]: 35.6% | % Viability [10]: 64.4% | Proliferation Rate [10]: 0.04 | % Dead Cells [11]: 25.0% | % Viability [11]: 75.0% | Proliferation Rate [11]: 0.09 | % Dead Cells [12]: 29.0% | % Viability [12]: 71.0% | Proliferation Rate [12]: 0.03 | % Dead Cells [13]: 11.9% | % Viability [13]: 88.1% | Proliferation Rate [13]: 0.08 | % Dead Cells [14]: 47.2% | % Viability [14]: 52.8% | Proliferation Rate [14]: 0.03 | % Dead Cells [15]: 56.7% | % Viability [15]: 43.4% | Proliferation Rate [15]: 0.04 | % Dead Cells [16]: 21.5% | % Viability [16]: 78.5% | Proliferation Rate [16]: 0.13 | % Dead Cells [17]: 21.6% | % Viability [17]: 78.4% | Proliferation Rate [17]: 0.11 | % Dead Cells [18]: 50.0% | % Viability [18]: 50.0% | Proliferation Rate [18]: 0.02 | % Dead Cells [19]: 23.6% | % Viability [19]: 76.5% | Proliferation Rate [19]: 0.15 | % Dead Cells [20]: 38.6% | % Viability [20]: 61.4% | Proliferation Rate [20]: 0.02 | Cell proliferation rate (M4N in DMSO or CPE formulation vs non-M4N-treated controls in the same formulation): reduced | % Dead Cells [21]: 5.1% | % Viability [21]: 94.9% | Proliferation Rate [21]: 0.25 | % Dead Cells [22]: 26.3% | % Viability [22]: 73.7% | Proliferation Rate [22]: 0.10 | % Dead Cells [23]: 55.6% | % Viability [23]: 44.4% | Proliferation Rate [23]: 0.01 | % Dead Cells [24]: 40.2% | % Viability [24]: 59.8% | Proliferation Rate [24]: 0.01 | % Dead Cells [25]: 12.0% | % Viability [25]: 88.0% | Proliferation Rate [25]: 0.32 | % Dead Cells [26]: 25.8% | % Viability [26]: 74.2% | Proliferation Rate [26]: 0.11 | % Dead Cells [27]: 58.1% | % Viability [27]: 41.9% | Proliferation Rate [27]: 0.05 | % Dead Cells [28]: 59.7% | % Viability [28]: 40.3% | Proliferation Rate [28]: 0.03 | IC50 (read-out: M4N sufficient to cause about a 50% inhibition in cell proliferation, CPE formulation, 72 hr): ~20 µM
